As a reminder, the Ki is the dissociation constant of the complex between target and ligand, obtained from inhibition or displacement.

SMILES strings stand for the structures. Read-outs that look alike come from different tables or passages of the source. Marks after values point to notes of the source that are not given here. A value given as a limit tells only on which side of the number the result lay.

Experiment [1] has as its system arthritic rats (collagen-induced arthritis model). Put plainly: Mechanical hyperalgesia (PAM) in CIA rats. Format: in vivo, rat. Particulars: 15 mg/kg, mean ± SEM. As for the experimental part: Male Lewis rats were immunised by intradermal injection at the base of the tail with an emulsion containing 150 μg of bovine collagen type II (bCII) in complete Freund’s adjuvant (CFA) or received an injection with incomplete Freund’s adjuvant (sham group). Three weeks after the first immunisation, animals were boosted with the same procedure. Three days after booster injection, arthritis had developed in all animals but the sham group. Oedema was assessed via plethysmometer (Ugo Basile, Varese, Italy), and the animals were then randomised to treatment groups. Oedema measurement was performed again after 7 and 14 days of treatment. Animals were blindly scored by two different investigators for clinical signs of arthritis (redness, swelling, pain of hind limb joints) as follows: 0 = normal; 1 = mild but definite redness and swelling of the ankle or wrist or individual digits, regardless of the number of affected digits; 2 = moderate redness and swelling of ankle or wrist; 3 = severe redness and swelling of the entire paw including digits; and 4 = maximally inflamed limb with involvement of multiple joints. The mean of the scores assigned by the investigators was calculated.
In the comparative experiment vs rofecoxib, mechanical hyperalgesia was assessed at the end of treatment by using a digital pressure application measurement (PAM) device (Ugo Basile). Increasing pressure was applied to the lateral side of the knee until the animal attempted to escape or vocalised. The force required to elicit this response was measured in grams (gram-force). An optimal stimulus increase rate of 100 g/second was used, and mechanical thresholds were reached after approximately 10 seconds. This increase was visualised with a rate meter on the built-in display, so the pressure applied was visually controlled. At the end of the experiment, animals were killed, and their hind paws were explanted and processed for histology.

The next experiment concerns the target CysLT1 (Cys-LTs) (Homo sapiens, UniProt Q9Y271). Kind of experiment: Eicosanoid receptor CysLT1 binding. As to conditions: [^3H]LTD4, HEK-293 cells, read-out: CR6086 Activity at 10µM.
Another experiment addresses NK1 (Homo sapiens, UniProt P25103). Kind of experiment: Neurokinin receptor NK1 binding. As to conditions: [^125I]BH-SP, U-373MG cells (endogenous), read-out: CR6086 Activity at 10µM.
For the next experiment, the target named is AT1 (Homo sapiens, UniProt P30556). Put plainly: Angiotensin receptor AT1 binding. As to conditions: [^125I][Sar^1, IIe^8]-AT-II, Human recombinant HEK-293 cells, read-out: CR6086 Activity at 10µM.
Chain of AT1 (P30556 whole entry): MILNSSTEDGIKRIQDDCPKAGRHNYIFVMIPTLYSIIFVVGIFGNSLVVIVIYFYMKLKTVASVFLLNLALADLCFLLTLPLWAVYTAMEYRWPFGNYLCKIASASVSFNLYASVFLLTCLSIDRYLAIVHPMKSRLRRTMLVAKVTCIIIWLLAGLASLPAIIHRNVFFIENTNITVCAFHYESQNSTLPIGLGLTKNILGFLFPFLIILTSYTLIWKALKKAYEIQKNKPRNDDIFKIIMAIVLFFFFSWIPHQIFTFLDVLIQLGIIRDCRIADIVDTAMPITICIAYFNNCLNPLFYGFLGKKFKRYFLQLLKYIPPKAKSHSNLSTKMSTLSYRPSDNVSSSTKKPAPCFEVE
Another experiment deals with 5-HT7 (Homo sapiens, UniProt P34969). Put plainly: Serotonin receptor 5-HT7 binding. As to conditions: [^3H]LSD, Human recombinant CHO cells, read-out: CR6086 Activity at 10µM.
Chain of 5-HT7 (P34969 whole entry): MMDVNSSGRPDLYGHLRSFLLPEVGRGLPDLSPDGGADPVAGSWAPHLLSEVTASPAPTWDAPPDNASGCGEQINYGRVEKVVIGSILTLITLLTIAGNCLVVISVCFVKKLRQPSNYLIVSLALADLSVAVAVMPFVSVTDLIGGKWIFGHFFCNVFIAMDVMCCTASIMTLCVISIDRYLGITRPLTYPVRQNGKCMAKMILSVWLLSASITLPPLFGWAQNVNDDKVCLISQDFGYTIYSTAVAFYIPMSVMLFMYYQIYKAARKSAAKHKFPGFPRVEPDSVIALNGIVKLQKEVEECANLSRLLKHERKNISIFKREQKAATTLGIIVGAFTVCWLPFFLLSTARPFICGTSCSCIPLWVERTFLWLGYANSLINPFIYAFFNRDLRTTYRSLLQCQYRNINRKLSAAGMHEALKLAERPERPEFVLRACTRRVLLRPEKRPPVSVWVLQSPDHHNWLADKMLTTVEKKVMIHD
A further experiment addresses T1, human EP4 receptor (Homo sapiens, UniProt P35408).
T1 construct: expressed in transfected cells
Kind of experiment: EP4 radioligand binding assay ([^3H]PGE2), human receptor. Particulars: for Ki: read-out: Ki CR6086. From the text:
The complementary DNA (cDNA) clone of the human EP4 receptor (hEP4R; NM_000958.2) was obtained from Thermo Fisher Scientific (Ultimate ORF Clone Collection, clone ID IOH46525; Waltham, MA, USA). The coding sequence was subcloned in expression vector pcDNATM6.2/V5-DEST by using Invitrogen Gateway technology (Thermo Fisher Scientific). Human embryonic kidney cells 293 (HEK293) were obtained from the American Type Culture Collection (ATCC; Manassas, VA, USA) and transfected with expression vector for hEP4R according to the method described in the FuGENE 6 Transfection Reagent technical manual (Promega, Madison, WI, USA). The clones overexpressing the protein were selected for Blasticidin S HCl (Thermo Fisher Scientific) resistance. The selected clone was grown in DMEM containing 10% FBS and 10 μg/ml Blasticidin S HCl (selection medium) at 37 °C in a humidified atmosphere of 5% CO2 in air.
Membranes expressing the human EP4 receptor were prepared from stably transfected HEK293 cell line. Cells were grown adherent in DMEM with GlutaMAX-I (Thermo Fisher Scientific) containing 10% FBS and Blasticidin 10 μg/ml at 37 °C in a humidified atmosphere with 5% CO2. Membranes expressing the mouse or rat EP4 receptor were prepared from transiently transfected HEK293 cells. Cells were grown adherent in DMEM with GlutaMAX-I containing 10% FBS at 37 °C in a humidified atmosphere with 5% CO2. For the preparation of all cell membranes, culture medium was aspirated from 150-cm^2 flasks into which cells were seeded. Cell monolayers were then washed with 10 ml of hypotonic lysis buffer (Tris 5 mM + ethylenediaminetetraacetic acid [EDTA] 5 mM, pH 7.4), detached, and lysed with 10 ml + 10 ml of lysis buffer by mechanical scraping. Lysates were vortexed for 30 seconds and centrifuged at 40,000 × g for 22 minutes at 4 °C. Pellets were stored at −80 °C until use. Protein content of the cell membrane suspension was determined using bovine serum albumin (BSA) as a standard.
Experimental procedures were performed according to the method of Abramovitz et al.. [^3H]PGE2 (PerkinElmer, Waltham, MA, USA) binding assays for recombinant EP4 receptors were performed in 10 mM 2-(N-morpholino)ethanesulphonic acid-KOH buffer, pH 6, containing 10 mM MgCl2 and 1 mM CaCl2. Ten micrograms of protein from membrane fractions were incubated in a total volume of 0.1 ml with 1–1.5 nM [^3H]PGE2. To determine the total binding or non-specific binding, 1% dimethyl sulphoxide (DMSO) or 1 μM PGE2 was added to the reaction mixture. Incubation was carried out in 96-well multi-well plates for 90 minutes at room temperature prior to separation of the bound and free radioligand by rapid filtration on glass-fibred filters (UniFilter-96 GF/B; PerkinElmer) pre-soaked in 0.3% polyethylenimine. […] The residual [^3H]PGE2 binding was determined using a solid scintillation counter (TopCount; PerkinElmer) after at least 1 h of stabilisation. In saturation binding studies, isotherm-binding curves generated with six to eight different concentrations of [^3H]PGE2 (from 0.5 to 25 nM) were evaluated. […]
Specific binding to the receptors was defined as the difference between total binding and non-specific binding, as determined in the presence of an excess of unlabelled ligand. Binding isotherm curves were analysed to determine the equilibrium binding parameters, affinity (dissociation constant [Kd]) and maximal binding capacity of labelled ligand. Competition curves were analysed to assess the half-maximal inhibitory concentration (IC50). […]

The mark [2] stands for this setting: equilibrium binding, CR6086 50 nM.

T1 sequence (P35408 whole entry): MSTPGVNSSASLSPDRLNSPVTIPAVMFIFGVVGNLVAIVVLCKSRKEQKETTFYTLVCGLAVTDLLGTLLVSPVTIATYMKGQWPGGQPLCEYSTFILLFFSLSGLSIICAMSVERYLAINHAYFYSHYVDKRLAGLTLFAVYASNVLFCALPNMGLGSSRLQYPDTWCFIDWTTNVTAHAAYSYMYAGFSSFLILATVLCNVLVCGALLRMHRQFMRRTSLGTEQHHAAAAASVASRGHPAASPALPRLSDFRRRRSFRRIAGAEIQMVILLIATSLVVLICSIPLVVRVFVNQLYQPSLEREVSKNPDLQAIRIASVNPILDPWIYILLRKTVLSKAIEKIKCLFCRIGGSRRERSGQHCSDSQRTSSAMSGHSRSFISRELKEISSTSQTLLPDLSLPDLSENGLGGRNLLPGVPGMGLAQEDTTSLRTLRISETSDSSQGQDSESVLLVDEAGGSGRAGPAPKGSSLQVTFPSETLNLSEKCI
Chain of CysLT1 (Cys-LTs) (Q9Y271 whole entry, species assumed): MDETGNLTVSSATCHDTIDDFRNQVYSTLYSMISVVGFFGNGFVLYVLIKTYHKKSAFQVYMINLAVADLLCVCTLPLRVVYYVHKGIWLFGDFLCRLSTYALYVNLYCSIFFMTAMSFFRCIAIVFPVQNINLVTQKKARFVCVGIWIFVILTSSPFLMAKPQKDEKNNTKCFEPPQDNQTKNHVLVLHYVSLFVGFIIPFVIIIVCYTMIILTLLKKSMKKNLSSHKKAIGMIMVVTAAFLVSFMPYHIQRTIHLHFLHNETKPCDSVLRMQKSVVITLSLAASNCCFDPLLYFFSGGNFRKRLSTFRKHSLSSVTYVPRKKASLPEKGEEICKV
Chain of NK1 (P25103 whole entry): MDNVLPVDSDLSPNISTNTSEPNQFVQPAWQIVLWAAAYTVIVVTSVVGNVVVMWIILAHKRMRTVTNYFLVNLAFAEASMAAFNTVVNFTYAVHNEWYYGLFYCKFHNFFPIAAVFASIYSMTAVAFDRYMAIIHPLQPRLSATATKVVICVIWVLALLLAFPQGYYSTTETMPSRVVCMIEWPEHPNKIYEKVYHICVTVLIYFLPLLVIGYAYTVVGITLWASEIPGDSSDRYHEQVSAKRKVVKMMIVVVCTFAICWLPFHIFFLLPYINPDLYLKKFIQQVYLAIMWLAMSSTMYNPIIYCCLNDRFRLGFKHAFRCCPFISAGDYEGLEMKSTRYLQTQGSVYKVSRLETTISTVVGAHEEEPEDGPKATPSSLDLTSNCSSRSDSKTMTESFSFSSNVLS

Take `O=C([O-])c1ccc(C2(NC(=O)[C@H]3CC4(CCN3Cc3ccc(C(F)(F)F)cc3)CC4)CC2)cc1.[Na+]` [CR6086, Sodium (R)-4-(1-(6-(4-(trifluoromethyl)benzyl)-6-azaspiro[2.5]octane-5-carboxamido)cyclopropyl)benzoate]: the “Mechanical hyperalgesia, Day 0” value in experiment [1] (Day 0) was 850.45 ± 59.57^a gram-force. Moreover, the “Mechanical hyperalgesia, Day 7” value in experiment [1] (Day 7) is 846.33 ± 43.60^b,c gram-force. Further, in experiment [1] (Day 14), the “Mechanical hyperalgesia, Day 14” value is given as 1023.09 ± 53.97^d gram-force. The inhibition at 10 µM on CysLT1 (Cys-LTs), at NK1, at AT1 and on 5-HT7 was below 20% throughout. For the same compound, the Ki worked out at 16.6 nM at human EP4 receptor ([^3H]PGE2 displacement, HEK293 membranes, absence of BSA) and 15.5 nM at human EP4 receptor (after addition of 0.5% BSA in the assay buffer). The “change in [^3H]PGE2 affinity in the presence of CR6086” value at human EP4 receptor (setting [2]) is on record as “fourfold decrease”. In addition, at human EP4 receptor (setting [2]), the “change in maximal binding capacity of [^3H]PGE2” value was “+20%”. The type of antagonism entry at human EP4 receptor (setting [2]) is reported as “competitive antagonist”.

The values are drawn from publication PMC5831858, “Pharmacological characterisation of CR6086, a potent prostaglandin E2 receptor 4 antagonist, as a new potential disease-modifying anti-rheumatic drug” (Arthritis Research & Therapy, 2018).
